Experimental findings from patent US20230098332A1, “HETEROCYCLIC DERIVATIVES AS TRMP8 ANTAGONISTS” (Givaudan SA, priority 2020, published 2023) are described below.

pEC50: −log10 of the molar value.

The test system of assay [1] is trained group of panelists. Kind of assay: Sensory studies in model dentifrice (trained panelists, cooling in the mouth). Type of assay: in vivo, human. The note with it: 100 ppm in model unflavored dentifrice, brushing with 1 g for 60 seconds; for Cooling after 1 hour / Max. cooling: averaged panel score 0-10. The method, then:
The compounds listed in Table 3 were dissolved at a concentration of 1 wt-% in propylene glycol. These solutions were then dispersed in appropriate quantities to obtain the desired final concentration of 100 ppm (parts per million) of the test compound into a model, unflavored dentifrice, the formula of which is given below (ingredients obtained from the suppliers respectively indicated in parenthesis).
A trained group of panelists evaluated the dentifrice containing a compound of formula (I), by brushing their teeth with 1 g of the dentifrice using a toothbrush for 60 seconds, followed by spitting, without rinsing the mouth afterwards for the duration of the evaluation. Panelists evaluated and recorded the cooling performance as well as other sensorial and organoleptic attributes at different timepoints over a period of two hours. Cooling performance was rated on a scale from 0 to 10 with 0 being no effect and 10 being freezing. Scores were averaged for all panelists and the cooling intensity qualified as “N” for “none” (score of 0), “L” for “low” (score above 0, up to 1), “M” for “medium” (score above 1, up to 4), “S” for “strong” (score above 4, up to 8) and “E” for “extreme” (score above 8), which are summarized below in Table 3.

In assay [2] the test system is trained group of panelists. Kind of assay: Sensory studies in aqueous solution (trained panelists, cooling in the mouth). The assay is classed as in vivo, human. The note with it: 40 ppm in aqueous solution, 20 mL swilled in the mouth for 60 seconds; for Cooling after 1 hour / Max. cooling: averaged panel score 0-10. The method, then:
The compounds as listed below in Table 2 were dissolved at a concentration of 1 wt-% in propylene glycol. These solutions were then dispensed in appropriate quantities into deionized water containing 0.5 wt-% Poloxamer 407 (which is a hydrophilic non-ionic surfactant, e.g., commercially available from SigmaAldrich) and 0.25 wt-% Cremaphor® RH40 (obtained from BASF) as solubilizer, to obtain the desired final concentration of 40 ppm (parts per million) of the respective compound.
A trained group of panelists evaluated the aqueous solutions containing test compound by swilling 20 mL of the solution in the mouth for 60 seconds, followed by spitting, without rinsing the mouth afterwards for the duration of the evaluation. Panelists evaluated and recorded the cooling performance as well as other sensorial and organoleptic attributes at different timepoints over a period of two hours. Cooling performance was rated on a scale from 0 to 10 with 0 being no effect and 10 being freezing. Scores were averaged for all panelists and the cooling intensity qualified as “N” for “none” (score of 0), “L” for “low” (score above 0, up to 1), “M” for “medium” (score above 1, up to 4), “S” for “strong” (score above 4, up to 8) and “E” for “extreme” (score above 8), which are provided in Table 2.

In assay [3] the target is T1, hTRPM8 (Homo sapiens, UniProt Q7Z2W7).
T1 construct: expressed in transfected cells
Kind of assay: Assay on TRPM8 modulators: calcium imaging (Fluo-4, Flexstation) in HEK293 cell line stably expressing hTRPM8. As to conditions: TRPM8 agonist activity, calcium influx, HEK293 stably expressing hTRPM8, sigmoidal dose-response fit. Type of assay: cell-based. The procedure, abridged:
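Calcium influx monitored by Fluo-4 (2.7 μM with […] probenecid, 1 h 37 °C loading) in HEK293 cells stably expressing hTRPM8, in HEPES buffer pH 7.4 with 2 mM CaCl2. Fluorescence read 15 s before and 105 s after adding serial compound dilutions. Maximal activation relative to solvent and 31.6 μM menthol; EC50 from sigmoidal fit.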

T1 sequence (Q7Z2W7 whole entry): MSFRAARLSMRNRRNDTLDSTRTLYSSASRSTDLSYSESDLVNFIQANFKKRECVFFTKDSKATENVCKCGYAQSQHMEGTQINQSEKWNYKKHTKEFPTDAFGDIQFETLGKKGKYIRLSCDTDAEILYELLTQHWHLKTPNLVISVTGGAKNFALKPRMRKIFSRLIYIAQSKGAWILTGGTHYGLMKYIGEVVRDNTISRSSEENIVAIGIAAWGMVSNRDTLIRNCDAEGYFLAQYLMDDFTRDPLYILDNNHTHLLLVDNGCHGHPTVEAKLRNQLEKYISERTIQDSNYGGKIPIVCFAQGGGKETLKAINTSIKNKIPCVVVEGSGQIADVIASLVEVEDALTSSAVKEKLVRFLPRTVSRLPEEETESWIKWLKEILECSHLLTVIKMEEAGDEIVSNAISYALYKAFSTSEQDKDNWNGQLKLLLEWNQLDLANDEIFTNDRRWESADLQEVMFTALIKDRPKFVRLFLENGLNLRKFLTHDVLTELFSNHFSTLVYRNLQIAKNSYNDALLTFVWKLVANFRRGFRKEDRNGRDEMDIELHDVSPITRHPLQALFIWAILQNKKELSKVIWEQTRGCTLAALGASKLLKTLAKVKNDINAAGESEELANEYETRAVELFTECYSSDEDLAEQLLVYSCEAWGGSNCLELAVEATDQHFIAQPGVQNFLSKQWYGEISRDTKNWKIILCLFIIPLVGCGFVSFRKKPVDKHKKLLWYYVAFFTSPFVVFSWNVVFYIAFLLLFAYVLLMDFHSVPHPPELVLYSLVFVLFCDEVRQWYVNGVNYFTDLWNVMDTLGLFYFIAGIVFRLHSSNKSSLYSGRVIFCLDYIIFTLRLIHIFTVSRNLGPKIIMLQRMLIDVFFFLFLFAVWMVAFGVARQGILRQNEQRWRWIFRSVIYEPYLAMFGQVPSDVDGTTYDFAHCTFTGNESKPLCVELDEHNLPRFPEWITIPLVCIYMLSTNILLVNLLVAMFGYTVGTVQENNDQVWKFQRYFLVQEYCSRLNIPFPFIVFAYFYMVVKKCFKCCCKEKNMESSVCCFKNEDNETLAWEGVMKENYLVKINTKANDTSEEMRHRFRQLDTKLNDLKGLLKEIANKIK

As a reminder, the pEC50 is the EC50 on a negative log10 scale, so that one unit is a factor of ten. With `Cc1cc(C)c(OCCN2CCN(C)CC2)c(Cc2ccccc2C#N)c1.Cl` [compound 118, 2-(3,5-dimethyl-2-(2-(4-methylpiperazin-1-yl)ethoxy)benzyl)benzonitrile hydrochloride], in assay [1], the “Time of max. cooling” value is 30 min; the “Cooling after 1 hour” value was “M (“M” for “medium” (score above 1, up to 4))”; the Max. cooling result is listed as “M (“M” for “medium” (score above 1, up to 4))”. In assay [2], the “Time of max. cooling” value was determined as 20 min; the “Cooling after 1 hour” value is “S (“S” for “strong” (score above 4, up to 8))”; the Max. cooling entry is on record as “S (“S” for “strong” (score above 4, up to 8))”. In addition, the pEC50 in assay [3] was more than 7.30.

Regarding `Cc1cc(C)c(OCCN2CCOCC2)c(Cc2ccccc2F)c1` [compound 153, 4-(2-(2-(2-fluorobenzyl)-4,6-dimethylphenoxy)ethyl)morpholine], in assay [1], the “Time of max. cooling” value amounted to 5 min; the “Cooling after 1 hour” value was “L (“L” for “low” (score above 0, up to 1))”; the Max. cooling result is listed as “M (“M” for “medium” (score above 1, up to 4))”. In assay [2], the “Time of max. cooling” value is 20 min; the “Cooling after 1 hour” value is reported as “M (“M” for “medium” (score above 1, up to 4))”; the Max. cooling entry is reported as “M (“M” for “medium” (score above 1, up to 4))”. Moreover, in assay [3], the pEC50 is 6.52 to 7.30.

On to `Cc1ccc(N(C)CCN2CCN(C)CC2)c(Cc2ccccc2)c1` [compound 137, 2-benzyl-N,4-dimethyl-N-(2-(4-methylpiperazin-1-yl)ethyl)aniline], for which, in assay [1], the “Time of max. cooling” value turned out to be 10 min; the “Cooling after 1 hour” value is listed as “L (“L” for “low” (score above 0, up to 1))”; the Max. cooling entry was “M (“M” for “medium” (score above 1, up to 4))”. For the same molecule, in assay [2], the “Time of max. cooling” value is 10 min; the “Cooling after 1 hour” value is “M (“M” for “medium” (score above 1, up to 4))”; the Max. cooling result is “S (“S” for “strong” (score above 4, up to 8))”. In assay [3], the pEC50 is 6.52 to 7.30.

In the case of `Cc1ccc(OCCN2CCN(C)CC2)c(Cc2ccccc2C#N)c1.Cl.Cl` [compound 130, 2-(5-methyl-2-(2-(4-methylpiperazin-1-yl)ethoxy)benzyl)benzonitrile dihydrochloride], in assay [1], the “Time of max. cooling” value amounted to 30 min; the “Cooling after 1 hour” value is recorded as “M (“M” for “medium” (score above 1, up to 4))”; the Max. cooling result was “M (“M” for “medium” (score above 1, up to 4))”. Further, in assay [2], the “Time of max. cooling” value worked out at 30 min; the “Cooling after 1 hour” value is on record as “S (“S” for “strong” (score above 4, up to 8))”; the Max. cooling entry is recorded as “S (“S” for “strong” (score above 4, up to 8))”.

Turning to `Cc1cc(C)c(CCCN2CCOCC2)c(Oc2ccccc2C#N)c1` [compound 125, 2-(3,5-dimethyl-2-(3-morpholinopropyl)phenoxy)benzonitrile], in assay [1], the “Time of max. cooling” value was 30 min; the “Cooling after 1 hour” value is “M (“M” for “medium” (score above 1, up to 4))”; the Max. cooling entry was “M (“M” for “medium” (score above 1, up to 4))”. Moreover, in assay [2], the “Time of max. cooling” value was 10 min; the “Cooling after 1 hour” value is “M (“M” for “medium” (score above 1, up to 4))”; the Max. cooling entry is “M (“M” for “medium” (score above 1, up to 4))”. In assay [3], the pEC50 was more than 7.30.

On to `Cc1ccc(OCCN2CCN(C)CC2)c(Cc2ccccc2)c1.Cl` [compound 85, 1-(2-(2-benzyl-4-methylphenoxy)ethyl)-4-methylpiperazine hydrochloride], for which, in assay [1], the “Time of max. cooling” value worked out at 20 min; the “Cooling after 1 hour” value was “L (“L” for “low” (score above 0, up to 1))”; the Max. cooling result was “L (“L” for “low” (score above 0, up to 1))”. In assay [2], the “Time of max. cooling” value was determined as 20 min; the “Cooling after 1 hour” value is recorded as “M (“M” for “medium” (score above 1, up to 4))”; the Max. cooling result is listed as “S (“S” for “strong” (score above 4, up to 8))”.

As to `Cc1cc(C)c(OCCN2CCOCC2)c(Cc2ccccc2C#N)c1` [compound 122, 2-(3,5-dimethyl-2-(2-morpholinoethoxy)benzyl)benzonitrile], in assay [1], the “Time of max. cooling” value was found to be 10 min; the “Cooling after 1 hour” value was “M (“M” for “medium” (score above 1, up to 4))”; the Max. cooling entry was “S (“S” for “strong” (score above 4, up to 8))”. Also, in assay [2], the “Time of max. cooling” value came out at 10 min; the “Cooling after 1 hour” value is reported as “M (“M” for “medium” (score above 1, up to 4))”; the Max. cooling result was “S (“S” for “strong” (score above 4, up to 8))”. Also, in assay [3], the pEC50 was more than 7.30.

With `Cc1cc(C)c(OCCN2CCN(C)CC2)c(Cc2ccccc2)c1.Cl.Cl` [compound 71, 1-(2-(2-benzyl-4,6-dimethylphenoxy)ethyl)-4-methylpiperazine dihydrochloride], in assay [1], the “Time of max. cooling” value was 10 min; the “Cooling after 1 hour” value is reported as “L (“L” for “low” (score above 0, up to 1))”; the Max. cooling result is “M (“M” for “medium” (score above 1, up to 4))”. Also, in assay [2], the “Time of max. cooling” value worked out at 20 min; the “Cooling after 1 hour” value is “M (“M” for “medium” (score above 1, up to 4))”; the Max. cooling entry was “S (“S” for “strong” (score above 4, up to 8))”.

`Cc1cc(C)c(OCCN2CCOCC2)c(Cc2c(F)cccc2F)c1` [compound 149, 4-(2-(2-(2,6-difluorobenzyl)-4,6-dimethylphenoxy)ethyl)morpholine]: in assay [1], the “Time of max. cooling” value was found to be 30 min; the “Cooling after 1 hour” value was “M (“M” for “medium” (score above 1, up to 4))”; the Max. cooling result is given as “M (“M” for “medium” (score above 1, up to 4))”. In assay [2], the “Time of max. cooling” value stood at 20 min; the “Cooling after 1 hour” value was “M (“M” for “medium” (score above 1, up to 4))”; the Max. cooling result is given as “S (“S” for “strong” (score above 4, up to 8))”. Moreover, the pEC50 in assay [3] was 6.52 to 7.30.
